IC50 data for 9 compounds are collected here from ChEMBL document CHEMBL1212816, “Proanthocyanidins from the leaves of Machilus philippinensis” (J Nat Prod, 2010).

The structures appear in SMILES notation.

A short description of this test: Inhibition of Bacillus stearothermophilus alpha glucosidase-4. Also on record: species or system Geobacillus stearothermophilus.
In general, IC50 refers to the concentration that gives 50% inhibition. A higher IC50 goes with lower potency. `Oc1cc(O)c2c(c1)O[C@H](c1ccc(O)c(O)c1)[C@H](O)[C@H]2c1c(O)cc2c(c1O)[C@@H]1c3c(cc(O)c4c3O[C@H](c3ccc(O)c(O)c3)[C@H](O)[C@H]4c3c(O)cc(O)c4c3O[C@H](c3ccc(O)c(O)c3)[C@H](O)C4)O[C@](c3ccc(O)c(O)c3)(O2)[C@@H]1O` returned an IC50 of 10.5 µM. `Oc1cc(O)c2c(c1)O[C@H](c1ccc(O)c(O)c1)[C@H](O)[C@H]2c1c(O)c2c(c3c1O[C@]1(c4ccc(O)c(O)c4)Oc4cc(O)cc(O)c4[C@H]3[C@H]1O)O[C@H](c1ccc(O)c(O)c1)[C@H](O)[C@H]2c1c(O)cc(O)c2c1O[C@H](c1ccc(O)c(O)c1)[C@H](O)C2` came in with a 50% inhibitory concentration (IC50) above 100 µM. On to `Oc1cc(O)c2c(c1)O[C@H](c1ccc(O)c(O)c1)[C@H](O)[C@H]2c1c(O)cc(O)c2c1O[C@H](c1ccc(O)c(O)c1)[C@H](O)[C@H]2c1c(O)c2c(c3c1O[C@]1(c4ccc(O)c(O)c4)Oc4cc(O)cc(O)c4[C@H]3[C@H]1O)O[C@H](c1ccc(O)c(O)c1)[C@H](O)[C@H]2c1c(O)cc(O)c2c1O[C@H](c1ccc(O)c(O)c1)[C@H](O)C2`, for which the IC50 came out at 31.3 µM. Consider `Oc1cc(O)c2c(c1)O[C@H](c1ccc(O)c(O)c1)[C@H](O)[C@H]2c1c(O)cc(O)c2c1O[C@H](c1ccc(O)c(O)c1)[C@H](O)[C@H]2c1c(O)cc(O)c2c1O[C@H](c1ccc(O)c(O)c1)[C@H](O)[C@H]2c1c(O)c2c(c3c1O[C@]1(c4ccc(O)c(O)c4)Oc4cc(O)cc(O)c4[C@H]3[C@H]1O)O[C@H](c1ccc(O)c(O)c1)[C@H](O)[C@H]2c1c(O)cc(O)c2c1O[C@H](c1ccc(O)c(O)c1)[C@H](O)C2`, for which the IC50 was determined as 18.4 µM.

In turn, `Oc1cc(O)c2c(c1)O[C@H](c1ccc(O)c(O)c1)[C@H](O)C2` [(-)-EPICATECHIN] yielded an IC50 above 100 µM. Regarding `C[C@H]1O[C@H](O[C@H]2[C@H](O)[C@@H](O)[C@@H](O[C@H]3[C@H](O)[C@@H](O)C(O)O[C@@H]3CO)O[C@@H]2CO)[C@H](O)[C@@H](O)[C@@H]1N[C@H]1C=C(CO)[C@@H](O)[C@H](O)[C@H]1O` (some centres undefined) [ACARBOSE], the IC50 was 0.049 µM. In the case of `Oc1cc(O)c2c(c1)O[C@@]1(c3ccc(O)c(O)c3)Oc3cc(O)c4c(c3[C@@H]2[C@H]1O)O[C@@H](c1ccc(O)c(O)c1)[C@H](O)[C@H]4c1c(O)cc(O)c2c1O[C@H](c1ccc(O)c(O)c1)[C@H](O)C2` [AESCULTITANNIN B] it was 3.5 µM. `Oc1cc(O)c2c(c1)O[C@@]1(c3ccc(O)c(O)c3)Oc3cc(O)c4c(c3[C@@H]2[C@H]1O)O[C@H](c1ccc(O)c(O)c1)[C@H](O)[C@H]4c1c(O)cc(O)c2c1O[C@H](c1ccc(O)c(O)c1)[C@H](O)C2` [CINNAMTANNIN B1] had an IC50 above 100 µM.

Compound `Oc1cc(O)c2c(c1)O[C@@]1(c3ccc(O)c(O)c3)Oc3cc(O)c4c(c3[C@@H]2[C@H]1O)O[C@H](c1ccc(O)c(O)c1)[C@H](O)[C@H]4c1c(O)cc(O)c2c1O[C@H](c1ccc(O)c(O)c1)[C@@H](O)C2` [CINNAMTANNIN D1] gave an IC50 of 92.9 µM.
